Assay [1] has as its system Enterococcus faecalis (Ef). Briefly: Minimal inhibitory concentration against multi-drug resistant bacteria. It counts as cell-based. Particulars: NA: No Activity. How it is done:
(§1) In vitro antibacterial activities against multi-drug resistant bacteria (MDRB) of Schiff bases 14–25 were performed at botany and microbiology department, Faculty of Science, Al-Azhar University, Cairo, Egypt. The antibacterial potential of 14–25 were investigated towards the multi-drug resistant bacteria (MDRB). The results were summarized as the diameter of the inhibition zones in mm and minimal inhibitory concentration (MIC, µg/mL) values in Table 2.
(§2) The synthesized compounds, Schiff bases 14–25, were in vitro evaluation of their antibacterial properties against multi-drug resistant bacteria (MDRB). Examples of Gram-positive bacteria are Staphylococcus aureus (MRSA, Sa), Staphylococcus epidermis (Sp), and Enterococcus faecalis (Ef). Examples of Gram-negative bacteria are Acinetobacter baumannii (Ab), Enterobacter cloaca (Ecl), and Escherichia coli (Ec). All the tested strain was identified by Vitek®2 system. The multi-drug resistant to antibiotics such as Ampicillin, Cephalexin, Colisin, Ipemenem, and Meropenem was verified.

The test system of assay [2] is Escherichia coli (Ec). Described as above. It counts as cell-based. Particulars: NA: No Activity. Here is the method:
as §1, §2

Assay [3] relates to Staphylococcus aureus (MRSA, Sa). The assay is described as above. Particulars: NA: No Activity. It is filed as cell-based. How it is done: as §1, §2
In assay [4] the test system is Enterobacter cloaca (Ecl). The description is as above. It counts as cell-based. Particulars: NA: No Activity. Here is the method:
(§3) In vitro antibacterial activities against multi-drug resistant bacteria (MDRB) of Schiff bases 14–25 were performed at botany and microbiology department, Faculty of Science, Al-Azhar University, Cairo, Egypt. The antibacterial potential of 14–25 were investigated towards the multi-drug resistant bacteria (MDRB).
(§4) The synthesized compounds, Schiff bases 14–25, were in vitro evaluation of their antibacterial properties against multi-drug resistant bacteria (MDRB). Examples of Gram-positive bacteria are Staphylococcus aureus (MRSA, Sa), Staphylococcus epidermis (Sp), and Enterococcus faecalis (Ef). Examples of Gram-negative bacteria are Acinetobacter baumannii (Ab), Enterobacter cloaca (Ecl), and Escherichia coli (Ec). All the tested strain was identified by Vitek®2 system.

Assay [5] deals with Staphylococcus epidermis (Se). The description is as above. It counts as cell-based. Particulars: NA: No Activity. Here is the method: as §3, §4
Assay [6] deals with Acinetobacter baumannii (Ab). The assay is described as above. It is filed as cell-based. Particulars: NA: No Activity. Here is the method: as §3, §4
In assay [7] the target is Staphylococcus aureus DNA gyrase (Staphylococcus aureus, UniProt P0A0K8+P20831). Briefly: In vitro enzyme inhibition assay. It is filed as biochemical. Particulars: mean of three values, read-out: IC50 (Mean ± SEM) DNA Gyrase.
Sequence of Staphylococcus aureus DNA gyrase (P20831 whole entry): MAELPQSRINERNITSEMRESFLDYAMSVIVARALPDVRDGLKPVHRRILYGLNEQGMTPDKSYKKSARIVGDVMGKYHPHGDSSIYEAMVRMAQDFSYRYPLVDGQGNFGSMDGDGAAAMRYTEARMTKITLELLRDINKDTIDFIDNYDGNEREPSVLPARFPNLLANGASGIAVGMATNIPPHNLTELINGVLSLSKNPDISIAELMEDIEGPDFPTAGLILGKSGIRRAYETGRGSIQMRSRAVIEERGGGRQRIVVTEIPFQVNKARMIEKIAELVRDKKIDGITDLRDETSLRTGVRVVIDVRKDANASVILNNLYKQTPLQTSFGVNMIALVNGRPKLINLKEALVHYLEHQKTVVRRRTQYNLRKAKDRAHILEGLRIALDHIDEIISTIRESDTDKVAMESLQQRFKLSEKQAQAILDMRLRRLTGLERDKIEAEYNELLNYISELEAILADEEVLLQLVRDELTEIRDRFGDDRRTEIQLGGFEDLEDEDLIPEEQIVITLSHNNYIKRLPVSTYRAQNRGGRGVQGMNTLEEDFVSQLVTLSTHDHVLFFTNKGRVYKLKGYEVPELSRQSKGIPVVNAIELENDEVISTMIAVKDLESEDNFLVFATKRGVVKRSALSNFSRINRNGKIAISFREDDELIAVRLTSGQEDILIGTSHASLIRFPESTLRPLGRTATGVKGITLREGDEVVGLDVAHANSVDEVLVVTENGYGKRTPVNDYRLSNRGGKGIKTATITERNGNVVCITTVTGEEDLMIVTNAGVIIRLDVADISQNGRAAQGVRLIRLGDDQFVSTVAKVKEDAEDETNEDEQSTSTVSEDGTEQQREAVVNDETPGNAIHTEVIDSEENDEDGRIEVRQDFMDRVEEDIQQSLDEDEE
Sequence of Staphylococcus aureus DNA gyrase (P0A0K8 whole entry): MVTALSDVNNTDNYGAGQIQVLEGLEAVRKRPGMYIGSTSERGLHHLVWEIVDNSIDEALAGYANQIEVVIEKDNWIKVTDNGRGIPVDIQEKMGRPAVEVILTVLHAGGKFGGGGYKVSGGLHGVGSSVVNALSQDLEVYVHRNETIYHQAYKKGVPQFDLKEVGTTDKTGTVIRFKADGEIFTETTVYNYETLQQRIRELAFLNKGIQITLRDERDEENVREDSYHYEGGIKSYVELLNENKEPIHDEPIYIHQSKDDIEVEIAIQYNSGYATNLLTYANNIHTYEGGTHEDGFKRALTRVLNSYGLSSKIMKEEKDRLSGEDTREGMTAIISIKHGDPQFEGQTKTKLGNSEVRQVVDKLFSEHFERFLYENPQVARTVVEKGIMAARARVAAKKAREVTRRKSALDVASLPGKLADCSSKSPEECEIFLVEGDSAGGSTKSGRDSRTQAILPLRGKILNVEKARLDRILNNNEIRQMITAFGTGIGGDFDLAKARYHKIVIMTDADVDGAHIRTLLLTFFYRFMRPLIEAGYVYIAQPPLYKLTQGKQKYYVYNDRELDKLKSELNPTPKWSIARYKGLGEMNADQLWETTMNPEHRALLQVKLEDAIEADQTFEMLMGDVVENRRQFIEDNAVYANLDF
Assay [8] concerns the target Topoisomerase IV (Staphylococcus aureus, UniProt P0C1S7+P0C1U9). Nature of the assay: In vitro enzyme inhibition assay. It counts as biochemical.

≈ marks a conversion by molar mass, not a printed value. Marks after values point to notes of the source that are not given here.

Sequence of Topoisomerase IV (P0C1S7 whole entry): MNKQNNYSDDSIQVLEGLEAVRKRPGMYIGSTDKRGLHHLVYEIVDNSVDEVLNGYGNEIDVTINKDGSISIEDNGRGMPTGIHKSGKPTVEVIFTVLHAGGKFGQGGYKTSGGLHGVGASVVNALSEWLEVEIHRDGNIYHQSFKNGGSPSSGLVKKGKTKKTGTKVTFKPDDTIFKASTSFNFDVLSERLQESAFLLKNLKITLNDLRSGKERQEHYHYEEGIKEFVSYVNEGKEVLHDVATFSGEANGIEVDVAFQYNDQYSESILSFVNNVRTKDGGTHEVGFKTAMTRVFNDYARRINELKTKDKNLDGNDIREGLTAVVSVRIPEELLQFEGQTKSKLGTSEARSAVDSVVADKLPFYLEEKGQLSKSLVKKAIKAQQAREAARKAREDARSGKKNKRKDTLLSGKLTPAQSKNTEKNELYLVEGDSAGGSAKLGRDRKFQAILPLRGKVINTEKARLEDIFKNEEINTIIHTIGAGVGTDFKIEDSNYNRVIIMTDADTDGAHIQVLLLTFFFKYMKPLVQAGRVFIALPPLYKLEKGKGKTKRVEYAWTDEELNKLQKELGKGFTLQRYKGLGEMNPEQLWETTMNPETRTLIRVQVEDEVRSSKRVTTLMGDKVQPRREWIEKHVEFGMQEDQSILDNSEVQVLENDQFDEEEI
Sequence of Topoisomerase IV (P0C1U9 whole entry): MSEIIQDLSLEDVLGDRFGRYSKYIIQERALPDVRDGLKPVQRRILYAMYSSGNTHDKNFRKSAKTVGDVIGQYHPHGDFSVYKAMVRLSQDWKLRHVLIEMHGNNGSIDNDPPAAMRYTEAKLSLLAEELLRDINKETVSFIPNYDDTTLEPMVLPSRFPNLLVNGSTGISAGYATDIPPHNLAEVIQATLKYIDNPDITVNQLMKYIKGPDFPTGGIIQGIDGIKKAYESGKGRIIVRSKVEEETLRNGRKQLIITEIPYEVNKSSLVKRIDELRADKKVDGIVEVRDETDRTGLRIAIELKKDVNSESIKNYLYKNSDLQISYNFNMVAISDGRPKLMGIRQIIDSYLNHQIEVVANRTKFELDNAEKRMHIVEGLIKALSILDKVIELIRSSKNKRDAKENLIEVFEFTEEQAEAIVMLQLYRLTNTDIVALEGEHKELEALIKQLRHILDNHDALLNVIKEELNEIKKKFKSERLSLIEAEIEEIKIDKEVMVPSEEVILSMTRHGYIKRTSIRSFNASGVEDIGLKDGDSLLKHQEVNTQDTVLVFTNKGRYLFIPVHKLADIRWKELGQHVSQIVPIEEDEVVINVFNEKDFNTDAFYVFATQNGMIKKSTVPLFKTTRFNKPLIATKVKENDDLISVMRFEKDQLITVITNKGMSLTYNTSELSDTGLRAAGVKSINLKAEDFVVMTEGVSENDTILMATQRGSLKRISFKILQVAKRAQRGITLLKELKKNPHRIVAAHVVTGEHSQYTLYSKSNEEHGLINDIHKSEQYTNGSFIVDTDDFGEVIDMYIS

For `O=C(O)c1cn(C2CC2)c2cc(N3CCNCC3)c(F)cc2c1=O` [Ciprofloxacin, reference compound], the minimum inhibitory concentration (MIC) in assay [1], in assay [2] and in assay [3] was 7.81 µg/mL (≈ 23.6 µM) each time.
In the case of `COc1ccc(Nc2n[nH]c(/N=C/c3ccccc3)c2C(=O)Nc2ccccc2)cc1` [Compound 14], the MIC was 15.6 µg/mL (≈ 38 µM) in assay [1], 31.2 µg/mL (≈ 75.9 µM) in assay [3], 125 µg/mL (≈ 304 µM) in assay [4] and 7.81 µg/mL (≈ 19 µM) in assay [5].
Turning to `COc1ccc(Nc2n[nH]c(/N=C/c3ccc(C)cc3)c2C(=O)Nc2ccccc2)cc1` [Compound 15], the MIC in assay [1] was 31.2 µg/mL (≈ 73.4 µM); in assay [2], 125 µg/mL (≈ 294 µM); in assay [3], 62.5 µg/mL (≈ 147 µM); in assay [6], 62.5 µg/mL (≈ 147 µM); in assay [4], 62.5 µg/mL (≈ 147 µM); in assay [5], 15.6 µg/mL (≈ 36.7 µM). Moreover, the “Minimal inhibitory concentration (MIC), Sa” value in assay [3] was 62.50 µg/mL (≈ 147 µM).
Regarding `COc1ccc(Nc2n[nH]c(/N=C/c3ccc(Cl)cc3)c2C(=O)Nc2ccccc2)cc1` [Compound 16], the minimum inhibitory concentration (MIC) in assay [1] was determined as 62.5 µg/mL (≈ 140 µM); in assay [2] it was 125 µg/mL (≈ 280 µM); in assay [3] it was 31.2 µg/mL (≈ 70.1 µM); in assay [6] it was 15.6 µg/mL (≈ 35 µM); in assay [4], 62.5 µg/mL (≈ 140 µM); in assay [5] it was 7.81 µg/mL (≈ 17.5 µM). Further, the “Minimal inhibitory concentration (MIC), Ab” value in assay [6] was 15.62 * µg/mL.
Regarding `COc1ccc(Nc2n[nH]c(/N=C/c3ccc(F)cc3)c2C(=O)Nc2ccccc2)cc1` [Compound 17], the MIC in assay [2] stood at 31.2 µg/mL (≈ 72.8 µM); in assay [3], 62.5 µg/mL (≈ 146 µM); in assay [6] it was 62.5 µg/mL (≈ 146 µM); in assay [4], 125 µg/mL (≈ 291 µM); in assay [5], 31.2 µg/mL (≈ 72.8 µM). For the same compound, the “Minimal inhibitory concentration (MIC), Ec” value in assay [2] is listed as 31.25 * µg/mL.
In the case of `COc1ccc(Nc2n[nH]c(/N=C/c3ccccc3)c2C(=O)Nc2ccc(C)cc2)cc1` [Compound 18], the MIC in assay [1] turned out to be 31.2 µg/mL (≈ 73.4 µM); in assay [2] it was 250 µg/mL (≈ 588 µM); in assay [3] it was 15.6 µg/mL (≈ 36.7 µM); in assay [6], 15.6 µg/mL (≈ 36.7 µM); in assay [4], 62.5 µg/mL (≈ 147 µM); in assay [5], 7.81 µg/mL (≈ 18.4 µM). In addition, the “Minimal inhibitory concentration (MIC), Sa” value in assay [3] was 15.62 * µg/mL. In assay [6], the “Minimal inhibitory concentration (MIC), Ab” value is listed as 15.62 * µg/mL. Moreover, the 50% inhibitory concentration (IC50) in assay [7] came to 1680 ± 100 nM; in assay [8] it was 74.6 ± 1.2 µM.
For the compound `COc1ccc(Nc2n[nH]c(/N=C/c3ccc(C)cc3)c2C(=O)Nc2ccc(C)cc2)cc1` [Compound 19], the MIC in assay [1] is 15.6 µg/mL (≈ 35.5 µM); in assay [2], 62.5 µg/mL (≈ 142 µM); in assay [3], 31.2 µg/mL (≈ 71.1 µM); in assay [6], 62.5 µg/mL (≈ 142 µM); in assay [4] it was 125 µg/mL (≈ 284 µM); in assay [5], 15.6 µg/mL (≈ 35.5 µM).
On to `COc1ccc(Nc2n[nH]c(/N=C/c3ccc(Cl)cc3)c2C(=O)Nc2ccc(C)cc2)cc1` [Compound 20], for which the MIC worked out at 250 µg/mL (≈ 544 µM) in assay [1], 62.5 µg/mL (≈ 136 µM) in assay [3] and 125 µg/mL (≈ 272 µM) in assay [5].
Consider `COc1ccc(Nc2n[nH]c(/N=C/c3ccc(F)cc3)c2C(=O)Nc2ccc(C)cc2)cc1` [Compound 21], for which the minimal inhibitory concentration (MIC) in assay [3] was 125 µg/mL (≈ 282 µM); in assay [5], 62.5 µg/mL (≈ 141 µM).
In the case of `COc1ccc(Nc2n[nH]c(/N=C/c3ccccc3)c2C(=O)Nc2ccc(Cl)cc2)cc1` [Compound 22], the minimum inhibitory concentration (MIC) in assay [1] is 125 µg/mL (≈ 280 µM); in assay [3], 250 µg/mL (≈ 561 µM); in assay [4], 15.6 µg/mL (≈ 35 µM); in assay [5], 125 µg/mL (≈ 280 µM). The “Minimal inhibitory concentration (MIC), Ecl” value in assay [4] is recorded as 15.62 * µg/mL.
`COc1ccc(Nc2n[nH]c(/N=C/c3ccc(C)cc3)c2C(=O)Nc2ccc(Cl)cc2)cc1` [Compound 23]: the MIC worked out at 7.81 µg/mL (≈ 17 µM) in assay [1], 31.2 µg/mL (≈ 67.9 µM) in assay [3], 62.5 µg/mL (≈ 136 µM) in assay [4] and 15.6 µg/mL (≈ 34 µM) in assay [5]. Further, in assay [1], the “Minimal inhibitory concentration (MIC), Ef” value is given as 7.81 * µg/mL.
Take `COc1ccc(Nc2n[nH]c(/N=C/c3ccc(Cl)cc3)c2C(=O)Nc2ccc(Cl)cc2)cc1` [Compound 24]: the MIC in assay [1] amounted to 15.6 µg/mL (≈ 32.5 µM); in assay [2], 125 µg/mL (≈ 260 µM); in assay [3], 125 µg/mL (≈ 260 µM); in assay [4], 62.5 µg/mL (≈ 130 µM); in assay [5], 62.5 µg/mL (≈ 130 µM).

Broadly, the MIC is the smallest concentration in the dilution series that meets the test's criterion for growth inhibition. Read a low MIC as inhibition by little substance. As usually defined, the IC50 is the concentration at which inhibition is half-maximal.

These data come from article PMC6749370, “Antibacterial Evaluation, In Silico Characters and Molecular Docking of Schiff Bases Derived from 5-aminopyrazoles” (Molecules, 2019).
